Results on 23 compounds are retold here after patent US20220204489A1, “ARYLSULFONYLTHIOPHENECARBOXAMIDES AND ARYLSULFONYLFURANCARBOXAMIDES AS Kv3 POTASSIUM CHANNEL ACTIVATORS” (H. Lundbeck A/S, priority 2019, published 2022).

SMILES strings stand for the structures.

This assay concerns the target T1, hKv3.1b (Homo sapiens, UniProt P48547).
T1 construct: expressed in transfected cells
T1 sequence (P48547 1-585 isoform P48547-2): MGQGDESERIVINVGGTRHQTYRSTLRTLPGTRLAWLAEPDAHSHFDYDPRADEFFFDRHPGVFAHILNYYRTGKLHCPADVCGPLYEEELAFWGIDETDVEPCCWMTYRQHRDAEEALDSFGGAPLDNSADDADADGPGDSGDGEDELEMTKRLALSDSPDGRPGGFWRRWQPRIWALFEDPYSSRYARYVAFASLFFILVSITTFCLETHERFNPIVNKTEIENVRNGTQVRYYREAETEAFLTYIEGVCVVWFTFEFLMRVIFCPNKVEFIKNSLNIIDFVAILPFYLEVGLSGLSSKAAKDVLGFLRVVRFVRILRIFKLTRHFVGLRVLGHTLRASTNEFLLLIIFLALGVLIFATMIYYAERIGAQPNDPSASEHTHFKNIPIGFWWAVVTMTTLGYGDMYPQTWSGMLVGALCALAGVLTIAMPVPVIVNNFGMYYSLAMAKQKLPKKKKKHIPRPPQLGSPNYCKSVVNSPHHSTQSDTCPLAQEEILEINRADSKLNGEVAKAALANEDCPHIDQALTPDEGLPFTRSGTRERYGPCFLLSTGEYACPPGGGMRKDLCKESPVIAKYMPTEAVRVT
In words: QPatch automated whole-cell patch-clamp, shift of voltage threshold for channel activation. The conditions noted are these: HEK-293 cells stably expressing hKv3.1b; for ECdelta5mV: concentration needed to shift the threshold 5 mV, read from fitted concentration response curve; for Max threshold shift: maximum absolute shift of activation threshold to more hyperpolarized potentials at tested concentrations (0.37, 1.11, 3.33, 10, 30 μM). Format: cell-based. On the procedure:
HEK-293 cells stably expressing hKv3.1b was used for the experiments. Cells were cultured in DMEM medium supplemented with 10% Fetal Bovine Serum, 100 ug/mL Geneticidin and 100 u/mL Penicillin/Streptomycin (all from Gibco). Cells were grown to 80-90% confluency at 37° C. and 5% CO2. On the day of the experiment the cells were detached from the tissue culture flasks by Detachin and resuspended in serum free medium containing 25 mM HEPES and transferred to the cell hotel of the QPatch. The cells were used for experiments 0-5 hours after detachment.
Patch-clamp recordings were performed using the automated recording system QPatch-16× (Sophion Bioscience, Denmark). Cells were centrifuged, SFM removed and the cells were resuspended in extracellular buffer containing (in mM): 145 NaCl, 4 KCl, 1 MgCl2, 2 CaCl2, 10 HEPES and 10 glucose (added fresh on the day of experiment); pH 7.4 adjusted with NaOH, 305 mOsm adjusted with sucrose.
Single cell whole-cell recordings were carried out using an intracellular solution containing (in mM): 120 KCl, 32.25/10 KOH/EGTA, 5.374 CaCl2, 1.75 MgCl2, 10 HEPES, 4 Na2ATP (added fresh on the day), pH 7.2 adjusted with KOH, 395 mOsm adjusted with sucrose. Cell membrane potentials were held at −80 mV and currents were evoked by voltage steps (200 ms duration) from −70 mV to +10 mV (in 10 mV increments). Vehicle (0.33% DMSO) or increasing concentration of compound (1) were applied and the voltage protocol was run 3 times (resulting in 3 min cpd incubation time). Five increasing concentrations of compound (1) were applied to each cell.
Leak subtraction protocol was applied at −33% of the sweep amplitude, and serial resistance values were constantly monitored.
Any cell where serial resistance exceeded 25 MOhm, membrane resistance less than 200 MOhm or current size at −10 mV less than 200 pA was eliminated from the subsequent analysis.
Data analysis was performed using Sophion's QPatch assay software in combination with Microsoft Excel™ (Redmond, Wash., USA).
Current voltage relationships were plotted from the peak current at the individual voltage steps normalized to the vehicle addition at 10 mV. The voltage threshold for channel activation was defined as 5% activation of the peak current at 10 mV in presence of vehicle. The activity of the compounds was described as the ability to shift this current voltage relationship to more hyperpolarized potentials and is given as the maximum absolute shift possible at the tested concentrations (0.37, 1.11, 3.33, 10, 30 μM). Concentration response curves were plotted from the threshold shift at the individual concentrations and were fitted excel fit model 205 sigmodal dose-response model (fit=A+((B−A)/1+((C/x)^D)))), where A is the minimum value, B the maximum value, C the EC50 value and D the slope of the curve. The concentration needed to shift the threshold 5 mV was readout from this curve (ECdelta5 mV).
(In general: The patch-clamp technique gives a direct electrical read-out from membranes.)

`Cc1ccc(S(=O)(=O)c2ccc(C(=O)NCc3cnc(C)cn3)o2)cc1` [Compound 22, 5-(4-methylbenzene-1-sulfonyl)-N-[(5-methylpyrazin-2-yl)methyl]furan-2-carboxamide]: the ECdelta5mV was determined as 2100 nM and the Max threshold shift was 27 mV.

On to `Cc1ccc(S(=O)(=O)c2ccc(C(=O)NCc3ncc(C)cn3)s2)cc1` [Compound 6, 5-(4-methylbenzene-1-sulfonyl)-N-[(5-methylpyrimidin-2-yl)methyl]thiophene-2-carboxamide], for which the ECdelta5mV is 3100 nM and the Max threshold shift amounted to 12 mV.

Take `Cc1ccc(S(=O)(=O)c2ccc(C(=O)NCc3nc(C)no3)s2)cc1` [Compound 11, 5-(4-methylbenzene-1-sulfonyl)-N-[(3-methyl-1,2,4-oxadiazol-5-yl)methyl]thiophene-2-carboxamide]: the ECdelta5mV is 2500 nM and the Max threshold shift came to 17 mV.

Turning to `Cc1cnc(CNC(=O)c2ccc(S(=O)(=O)c3ccc(Cl)cc3)s2)cn1` [Compound 2, 5-(4-chlorobenzene-1-sulfonyl)-N-[(5-methylpyrazin-2-yl)methyl]thiophene-2-carboxamide], the ECdelta5mV is reported as 1200 nM and the Max threshold shift came out at 36 mV.

As for `Cc1ccc(S(=O)(=O)c2ccc(C(=O)NCc3ncn(C)n3)s2)cc1` [Compound 15, 5-(4-methylbenzene-1-sulfonyl)-N-[(1-methyl-1H-1,2,4-triazol-3-yl)methyl]thiophene-2-carboxamide], the ECdelta5mV was determined as 3100 nM and the Max threshold shift turned out to be 20 mV.

Take `Cc1ccc(S(=O)(=O)c2ccc(C(=O)NCc3cccnc3)s2)cc1` [Compound 8, 5-(4-methylbenzene-1-sulfonyl)-N-[(pyridin-3-yl)methyl]thiophene-2-carboxamide]: the ECdelta5mV was determined as 2900 nM and the Max threshold shift is given as 16 mV.

Regarding `Cc1ccc(S(=O)(=O)c2ccc(C(=O)NCc3cc(F)ccn3)o2)cc1` [Compound 25, N-[(4-fluoropyridin-2-yl)methyl]-5-(4-methylbenzene-1-sulfonyl)furan-2-carboxamide], the ECdelta5mV is on record as 4100 nM and the Max threshold shift came to 15 mV.

For `Cc1ccc(S(=O)(=O)c2ccc(C(=O)NCc3cnccn3)s2)cc1` [Compound 10, 5-(4-methylbenzene-1-sulfonyl)-N-[(pyrazin-2-yl)methyl]thiophene-2-carboxamide], the ECdelta5mV stood at 1200 nM and the Max threshold shift came to 25 mV.

As to `Cc1ccc(S(=O)(=O)c2ccc(C(=O)NCc3cc(C)no3)s2)cc1` [Compound 13, 5-(4-methylbenzene-1-sulfonyl)-N-[(3-methyl-1,2-oxazol-5-yl)methyl]thiophene-2-carboxamide], the ECdelta5mV was determined as 2600 nM and the Max threshold shift is recorded as 14 mV.

Consider `Cc1ccc(S(=O)(=O)c2ccc(C(=O)NCc3cnc(C)cn3)s2)cc1` [Compound 1, 5-(4-methylbenzene-1-sulfonyl)-N-[(5-methylpyrazin-2-yl)methyl]thiophene-2-carboxamide], for which the ECdelta5mV is given as 1200 nM and the Max threshold shift came to 24 mV.

Consider `Cc1ccc(S(=O)(=O)c2ccc(C(=O)NCc3ccn(C)n3)o2)cc1` [Compound 23, 5-(4-methylbenzene-1-sulfonyl)-N-[(1-methyl-1H-pyrazol-3-yl)methyl]furan-2-carboxamide], for which the ECdelta5mV was found to be 2400 nM and the Max threshold shift came out at 17 mV.

Regarding `Cc1cc(F)ccc1S(=O)(=O)c1ccc(C(=O)NCc2cnccn2)s1` [Compound 19, 5-(4-fluoro-2-methylbenzene-1-sulfonyl)-N-[(pyrazin-2-yl)methyl]thiophene-2-carboxamide], the ECdelta5mV worked out at 3800 nM and the Max threshold shift stood at 14 mV.

`Cc1ccc(S(=O)(=O)c2ccc(C(=O)NCc3cnn(C)c3)s2)cc1` [Compound 9, 5-(4-methylbenzene-1-sulfonyl)-N-[(1-methyl-1H-pyrazol-4-yl)methyl]thiophene-2-carboxamide]: the ECdelta5mV was 2600 nM and the Max threshold shift was 17 mV.

As for `Cc1ccc(S(=O)(=O)c2ccc(C(=O)NCc3ccc(C)nc3)s2)cc1` [Compound 5, 5-(4-methylbenzene-1-sulfonyl)-N-[(6-methylpyridin-3-yl)methyl]thiophene-2-carboxamide], the ECdelta5mV was 2100 nM and the Max threshold shift was determined as 21 mV.

For `Cc1cnc(CNC(=O)c2ccc(S(=O)(=O)c3ccc(C(F)F)cc3)s2)cn1` [Compound 21, 5-[4-(difluoromethyl)benzene-1-sulfonyl]-N-[(5-methylpyrazin-2-yl)methyl]thiophene-2-carboxamide], the ECdelta5mV worked out at 1700 nM and the Max threshold shift worked out at 32 mV.

Regarding `Cc1cnc(CNC(=O)c2ccc(S(=O)(=O)c3ccccc3)s2)cn1` [Compound 18, 5-(benzenesulfonyl)-N-[(5-methylpyrazin-2-yl)methyl]thiophene-2-carboxamide], the ECdelta5mV was found to be 2400 nM and the Max threshold shift was 17 mV.

On to `Cc1cnc(CNC(=O)c2ccc(S(=O)(=O)c3ccc(F)cc3C)s2)cn1` [Compound 20, 5-(4-fluoro-2-methylbenzene-1-sulfonyl)-N-[(5-methylpyrazin-2-yl)methyl]thiophene-2-carboxamide], for which the ECdelta5mV is on record as 1900 nM and the Max threshold shift stood at 29 mV.

For the compound `Cc1ccc(S(=O)(=O)c2ccc(C(=O)NCc3ccc(C)nn3)s2)cc1` [Compound 14, 5-(4-methylbenzene-1-sulfonyl)-N-[(6-methylpyridazin-3-yl)methyl]thiophene-2-carboxamide], the ECdelta5mV amounted to 2000 nM and the Max threshold shift was determined as 22 mV.

As for `Cc1cnc(CNC(=O)c2ccc(S(=O)(=O)c3ccccc3C)s2)cn1` [Compound 4, 5-(2-methylbenzene-1-sulfonyl)-N-[(5-methylpyrazin-2-yl)methyl]thiophene-2-carboxamide], the ECdelta5mV was found to be 1200 nM and the Max threshold shift is listed as 30 mV.

Consider `COc1ccc(S(=O)(=O)c2ccc(C(=O)NCc3cnccn3)o2)cc1` [Compound 24, 5-(4-methoxybenzene-1-sulfonyl)-N-[(pyrazin-2-yl)methyl]furan-2-carboxamide], for which the ECdelta5mV was 2700 nM and the Max threshold shift came out at 20 mV.

`Cc1cnc(CNC(=O)c2ccc(S(=O)(=O)c3ccc(F)cc3)s2)cn1` [Compound 3, 5-(4-fluorobenzene-1-sulfonyl)-N-[(5-methylpyrazin-2-yl)methyl]thiophene-2-carboxamide]: the ECdelta5mV amounted to 2200 nM and the Max threshold shift turned out to be 19 mV.

With `Cc1ccc(S(=O)(=O)c2ccc(C(=O)NCc3ccn(C)n3)s2)cc1` [Compound 7, 5-(4-methylbenzene-1-sulfonyl)-N-[(1-methyl-1H-pyrazol-3-yl)methyl]thiophene-2-carboxamide], the ECdelta5mV is 2500 nM and the Max threshold shift is reported as 17 mV.

Take `Cc1ccc(S(=O)(=O)c2ccc(C(=O)NCc3cnc(C)nc3)s2)cc1` [Compound 17, 5-(4-methylbenzene-1-sulfonyl)-N-[(2-methylpyrimidin-5-yl)methyl]thiophene-2-carboxamide]: the ECdelta5mV was 1700 nM and the Max threshold shift was determined as 24 mV.
